What was measured:
Assay type in all cases: cell-based, mouse
[1] = system: M2 macrophages (bone marrow derived macrophages polarized with IL4/IL13); assay: M2 polarization of pre-treated BMDMs, CD206 marker by flow cytometry; details: naïve BMDMs pre-treated with compound, then polarized to M2 with IL4/IL13; FIG. 1
Method: (§1) Bone marrow derived macrophages (BMDMs): For macrophage isolation, bone marrow from 6-12 weeks old C57BL/6 mouse was used following an IACUC approved protocol. Briefly, femurs and tibia bones were isolated after removing the skeletal muscles. The bone marrow was flushed with RPMI complete medium supplemented with non-essential amino acids. A single-cell suspension of bone marrow was prepared with repeated pipetting and incubated with 20 ng/mL of mouse recombinant M-CSF (Biolegend) at 37° C. for 4 days to differentiate into macrophages.
Flow cytometry: Flow cytometry was performed following the protocol described previously. Knox et al., Sci Rep. 2019 Oct. 10; 9(1):14824. doi: 10.1038/s41598-019-51403-6. Briefly, mice were euthanized following the IACUC protocol, and tumor cells were processed into a single cell suspension for analysis by flow cytometry with tumor digestion buffer. The following antibodies were used to stain cell surface markers expressed by different immune cells. All the antibodies were purchased from Biolegend (San Diego, CA) unless otherwise specified. Myeloid cell surface markers are as follows: APC anti-mouse CD80 (clone 16-10A1), PE/Cy7 anti-mouse CD206 (MMR) (clone C068C2), APC/Fire™ 750 anti-mouse CD45.2 (clone 104), FITC anti-mouse H-2 (clone M1/42), Brilliant Violet 785TM anti-mouse F4/80 (clone BM8), and Alexa Fluor® 700 anti-mouse CD3 (clone 17A2). […]

[2] = system: Arginase I; assay: Arginase I gene expression by quantitative real-time PCR in pre-treated macrophages; details: FIG. 2
Method: as §1
(§2) Bone marrow derived macrophages (BMDMs) were differentiated into macrophages with M-CSF. These naïve macrophages were pre-treated with Nexturastat A (NextA) or 6-nitrobenzo[b]thiophene-1,1-dioxide (Stattic) and polarized to M2 macrophages with IL4/IL13. Pre-treatment with NextA and Stattic decreased polarization of M2 macrophages as indicated by flow cytometry.
(§3) Further validation of M2 polarization markers at gene expression levels by quantitative real-time PCR indicate that Arginase I, TGFβ, and FIZZ1, which are tumor-promoting factors, were decreased. FIG. 2, FIG. 3, and FIG. 4.

[3] = system: TGFβ; assay: TGFβ gene expression by quantitative real-time PCR in pre-treated macrophages; details: FIG. 3
Method: as §1, §2, §3

[4] = system: FIZZ1; assay: FIZZ1 gene expression by quantitative real-time PCR in pre-treated macrophages; details: FIG. 4
Method: as §1, §2, §3

O=[N+]([O-])c1ccc2c(c1)S(=O)(=O)C=C2 [Stattic, 6-nitrobenzo[b]thiophene-1,1-dioxide]
decreased: polarization of M2 macrophages (CD206 as marker, flow cytometry) [1] | Arginase I expression level (M2 polarization marker) [2] | TGFβ expression level (M2 polarization marker) [3] | FIZZ1 expression level (M2 polarization marker) [4]

CCCCN(Cc1ccc(C(=O)NO)cc1)C(=O)Nc1ccccc1 [NextA, Nexturastat A]
decreased: polarization of M2 macrophages (CD206 as marker, flow cytometry) [1] | Arginase I expression level (M2 polarization marker) [2] | TGFβ expression level (M2 polarization marker) [3] | FIZZ1 expression level (M2 polarization marker) [4]

From US20230405118A1, “STAT-ACTIVATED MACROPHAGES, COMPOSITIONS, AND USES THEREOF” (THE GEORGE WASHINGTON UNIVERSITY, A CONGRESSIONALLY …, priority 2020, published 2023)
